Measurements: PubChem BioAssay (NCI)
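Where inhibition never reached the appropriate level, the endpoint shown equals the highest concentration tested. Otherwise, values were interpolated linearly from a five-concentration, 48-hour dose response in 96-well plates. The concentration for full growth arrest is given as TGI.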

Assays:
Experiment in all cases: inhibition of tumour cell growth, NCI panel, 48 h
786-0 renal = test system: 786-0 renal
A498 renal = test system: A498 renal
A549 NSCLC = test system: A549 NSCLC
ACHN renal = test system: ACHN renal
BT-549 breast = test system: BT-549 breast
CAKI-1 renal = test system: CAKI-1 renal
CCRF-CEM leukemia = test system: CCRF-CEM leukemia
COLO 205 colon = test system: COLO 205 colon
EKVX NSCLC = test system: EKVX NSCLC
HCC-2998 colon = test system: HCC-2998 colon
HCT-116 colon = test system: HCT-116 colon
HCT-15 colon = test system: HCT-15 colon
HL-60(TB) leukemia = test system: HL-60(TB) leukemia
HOP-62 NSCLC = test system: HOP-62 NSCLC
HS 578T breast = test system: HS 578T breast
HT29 colon = test system: HT29 colon
IGROV1 ovarian = test system: IGROV1 ovarian
K-562 leukemia = test system: K-562 leukemia
KM12 colon = test system: KM12 colon
LOX IMVI melanoma = test system: LOX IMVI melanoma
M14 melanoma = test system: M14 melanoma
MALME-3M melanoma = test system: MALME-3M melanoma
MCF7 breast = test system: MCF7 breast
MDA-MB-231 breast = test system: MDA-MB-231 breast
MDA-MB-435 = test system: MDA-MB-435
MDA-N = test system: MDA-N
MOLT-4 leukemia = test system: MOLT-4 leukemia
NCI-H226 lung = test system: NCI-H226 lung
NCI-H23 lung = test system: NCI-H23 lung
NCI-H460 lung = test system: NCI-H460 lung
NCI-H522 lung = test system: NCI-H522 lung
NCI/ADR-RES ovarian = test system: NCI/ADR-RES ovarian
OVCAR-3 ovarian = test system: OVCAR-3 ovarian
OVCAR-4 ovarian = test system: OVCAR-4 ovarian
OVCAR-5 ovarian = test system: OVCAR-5 ovarian
OVCAR-8 ovarian = test system: OVCAR-8 ovarian
PC-3 prostate = test system: PC-3 prostate
RPMI-8226 leukemia = test system: RPMI-8226 leukemia
SF-268 CNS = test system: SF-268 CNS
SF-295 CNS = test system: SF-295 CNS
SF-539 CNS = test system: SF-539 CNS
SK-MEL-2 melanoma = test system: SK-MEL-2 melanoma
SK-MEL-28 melanoma = test system: SK-MEL-28 melanoma
SK-OV-3 ovarian = test system: SK-OV-3 ovarian
SN12C renal = test system: SN12C renal
SNB-19 CNS = test system: SNB-19 CNS
SNB-75 CNS = test system: SNB-75 CNS
SR leukemia = test system: SR leukemia
SW-620 colon = test system: SW-620 colon
T-47D breast = test system: T-47D breast
TK-10 renal = test system: TK-10 renal
U251 CNS = test system: U251 CNS
UACC-257 melanoma = test system: UACC-257 melanoma
UACC-62 melanoma = test system: UACC-62 melanoma
UO-31 renal = test system: UO-31 renal
DU-145 prostate = test system: DU-145 prostate
RXF 393 renal = test system: RXF 393 renal
SK-MEL-5 melanoma = test system: SK-MEL-5 melanoma
HOP-92 NSCLC = test system: HOP-92 NSCLC

Measured: TGI

COC(=O)c1ccc(C)cc1CC1Cc2cc(C)ccc2C1=O (stereo not given)
not listed: DU-145 prostate | RXF 393 renal | SK-MEL-5 melanoma | HOP-92 NSCLC
> 100 µM: all other assays above

Cc1ccc(S(=O)(=O)N/N=C/c2c(O)ccc3ccccc23)cc1
49.1 µM: SK-MEL-2 melanoma
70.7 µM: MDA-MB-231 breast
84.3 µM: OVCAR-4 ovarian
55.3 µM: MDA-MB-435
35.3 µM: CAKI-1 renal
77.4 µM: MALME-3M melanoma
74.3 µM: SNB-75 CNS
46.1 µM: HCC-2998 colon
64.9 µM: M14 melanoma
37.4 µM: COLO 205 colon
44.2 µM: A498 renal | OVCAR-3 ovarian
84.5 µM: IGROV1 ovarian
46.8 µM: HS 578T breast
58.6 µM: PC-3 prostate
57.5 µM: SF-295 CNS
83.2 µM: NCI-H23 lung
44.9 µM: KM12 colon
59.6 µM: BT-549 breast
42.4 µM: RXF 393 renal
45.6 µM: HCT-116 colon | NCI-H522 lung
49.4 µM: UACC-62 melanoma
88.2 µM: OVCAR-5 ovarian
84.6 µM: SK-OV-3 ovarian
41.8 µM: SF-539 CNS
not listed: NCI-H226 lung | SR leukemia | HOP-92 NSCLC
> 100 µM: all other assays above

C=CCN1C(=O)C=C(c2ccccc2)n2ncc3cccc1c32
not listed: HCC-2998 colon | K-562 leukemia | MDA-MB-435 | NCI-H460 lung | OVCAR-4 ovarian | SNB-75 CNS | RXF 393 renal
> 100 µM: all other assays above

Cc1ccc(Nc2n[nH]c(=S)s2)cc1C
not listed: NCI-H226 lung | SR leukemia
> 100 µM: all other assays above
